Assay results: patent publication US20210179578A1, “OX1 ANTAGONISTS” (Heptares Therapeutics Limited, priority 2017, published 2021)

Molecular target: T1, human OX1 receptor (Homo sapiens, UniProt O43613)
T1 sequence (O43613 1-425): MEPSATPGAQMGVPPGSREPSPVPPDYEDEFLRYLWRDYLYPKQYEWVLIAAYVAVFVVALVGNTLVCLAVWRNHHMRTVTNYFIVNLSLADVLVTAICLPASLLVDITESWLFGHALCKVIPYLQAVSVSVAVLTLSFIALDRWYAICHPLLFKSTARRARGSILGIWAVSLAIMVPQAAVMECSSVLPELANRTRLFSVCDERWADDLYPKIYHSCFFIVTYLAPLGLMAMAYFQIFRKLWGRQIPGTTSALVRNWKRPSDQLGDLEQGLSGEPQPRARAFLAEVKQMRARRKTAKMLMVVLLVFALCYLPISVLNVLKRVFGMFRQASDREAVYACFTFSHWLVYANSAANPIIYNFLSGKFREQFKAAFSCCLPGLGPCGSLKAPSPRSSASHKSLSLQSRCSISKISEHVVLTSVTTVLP
Experiment: IPone accumulation assay, CHO cells expressing OX1 (antagonism of orexin A)
Format: cell-based
Conditions: IPone accumulation, CHO human OX1, orexin A EC80 challenge (~20 nM); read-out: fpKb average OX1 (converted)
Experimental: Generation of CHO stable cell lines expressing the human OX1R and OX2R. Stable cell lines for the human OX1R and OX2R receptors were generated through the transfection of CHO cells using the transfection reagent Genejuice (Novagen number 70967) and cDNA coding for either the human OX1R or OX2R. Cells were cultured in Sigma Nutrient Mixture F-12 Ham media (catalog number N6658) supplemented with 10% heat-inactivated FBS. Forty-eight hours after transfection, cells were harvested and placed under geneticin selection by culturing in Sigma Nutrient Mixture F-12 Ham media supplemented with 10% heat-inactivated FBS and geneticin (ThermoFisher Catalog number: 10131035). Selection of the final stable clone for each receptor was made on the basis of receptor expression, assay signal to noise and robustness though increasing passage. Selected clones for the human OX1R and OX2R were then frozen down into liquid nitrogen using Cell Freezing Medium-DMSO (Sigma-Aldrich catalog number: C6164). IPone accumulation assay. A CHO cell line stably expressing either human OX1 or OX2 receptor was used with the IPone HTRF assay kit (CisBio: Part #62[…]) to measure receptor activation. The assay was optimised to measure the ability (potency; fpKb) of antagonists to reduce agonist (orexin A)-induced inositol phosphate turnover. Briefly, cells were plated onto half area 96-well white walled plates at a density of 12,500 cells/well. Sixteen hours post-plating cell growth media was replaced with antagonist concentration-response curve diluted in stimulation buffer (supplied with the kit). Cells were incubated in a humidified incubator (37° C.) for 30 min before an EC80 challenge concentration ( 20 nM (OX1) and 40 nM (OX2)) of orexin A (Tocris catalogue number 1455). After 30 min stimulation in a humidified incubator (37° C.) the assay was terminated by the addition of detection mixture as per manufacturer's instructions. The concentration of compound which reduced orexin-A stimulated turnover of inositol phosphates by 50% (IC50) was calculated by fitting to a four parameter sigmoidal dose response curve. The IC50 values were converted to fpKB values using the orexin A pEC50 value estimated on each plate as well as the challenge concentration interpolated from the orexin A control curve.

How did the Kb turn out when `COc1ncc(C2CCc3c(F)cccc3N(Cc3c(F)cc(Br)cc3F)C2=O)cc1S(C)(=O)=O` (racemic) [Example 19, 1-(4-bromo-2,6-difluorobenzyl)-6-fluoro-3-[6-methoxy-5-(methylsulfonyl)pyridin-3-yl]-1,3,4,5-tetrahydro-2H-1-benzazepin-2-one] was run?
The Kb was 31.6 nM.

`COc1ncc(C2CCc3c(F)cccc3N(Cc3c(F)cc(Br)cc3F)C2=O)cc1C(C)(F)F` (single isomer, unassigned) [Example 12, 1-(4-bromo-2,6-difluorobenzyl)-3-[5-(1,1-difluoroethyl)-6-methoxypyridin-3-yl]-6-fluoro-1,3,4,5-tetrahydro-2H-1-benzazepin-2-one] was tested. Which Kb did it give?
Its Kb is 12.6 nM.

With `COc1ncc(C2CCc3c(F)cccc3N(Cc3cc(C#N)ccc3F)C2=O)cc1C(C)(F)F` (single isomer, unassigned) [Example 13, 3-({3-[5-(1,1-difluoroethyl)-6-methoxypyridin-3-yl]-6-fluoro-2-oxo-2,3,4,5-tetrahydro-1H-1-benzazepin-1-yl}methyl)-4-fluorobenzonitrile] as the compound, how does the Kb read?
The Kb was 50.1 nM.

Which Kb does the source give for `COc1ncc(C2CCc3c(F)cccc3N(Cc3c(F)cc(Br)cc3F)C2=O)cc1S(C)(=O)=O` (single isomer, unassigned) [Example 21, 1-(4-bromo-2,6-difluorobenzyl)-6-fluoro-3-[6-methoxy-5-(methylsulfonyl)pyridin-3-yl]-1,3,4,5-tetrahydro-2H-1-benzazepin-2-one] here?
Its Kb is 10 nM.

Which Kb does the source give for `COc1ncc(C2CCc3c(F)cccc3N(Cc3c(F)cc(Cl)cc3F)C2=O)cc1S(C)(=O)=O` (single isomer, unassigned) [Example 22, 1-(4-chloro-2,6-difluorobenzyl)-6-fluoro-3-[6-methoxy-5-(methylsulfonyl)pyridin-3-yl]-1,3,4,5-tetrahydro-2H-1-benzazepin-2-one] here?
The Kb was 10 nM.

`Cc1ncc(C2CCc3c(F)cccc3N(Cc3c(F)cc(Br)cc3F)C2=O)cc1C(C)(F)F` (single isomer, unassigned) [Example 35, 1-(4-bromo-2,6-difluorobenzyl)-3-[5-(1,1-difluoroethyl)-6-methylpyridin-3-yl]-6-fluoro-1,3,4,5-tetrahydro-2H-1-benzazepin-2-one] was tested. Which Kb did it give?
The Kb was 63.1 nM.

For `Cc1ncc(C2CCc3c(F)cccc3N(Cc3c(F)cc(Br)cc3F)C2=O)cc1C(C)(F)F` (single isomer, unassigned) [Example 36, 1-(4-bromo-2,6-difluorobenzyl)-3-[5-(1,1-difluoroethyl)-6-methylpyridin-3-yl]-6-fluoro-1,3,4,5-tetrahydro-2H-1-benzazepin-2-one], which Kb is on record?
The Kb was 20 nM.

`Cc1ncc(C2CCc3c(F)cccc3N(Cc3c(F)cc(Br)cc3F)C2=O)cc1S(C)(=O)=O` (single isomer, unassigned) [Example 38, 1-(4-bromo-2,6-difluorobenzyl)-6-fluoro-3-[6-methyl-5-(methylsulfonyl)pyridin-3-yl]-1,3,4,5-tetrahydro-2H-1-benzazepin-2-one] was tested. Which Kb did it give?
The Kb was 20 nM.

How did the Kb turn out when `Cc1ncc(C2CCc3c(F)cccc3N(Cc3c(F)cc(Br)cc3F)C2=O)cc1S(C)(=O)=O` (single isomer, unassigned) [Example 39, 1-(4-bromo-2,6-difluorobenzyl)-6-fluoro-3-[6-methyl-5-(methylsulfonyl)pyridin-3-yl]-1,3,4,5-tetrahydro-2H-1-benzazepin-2-one] was run?
Its Kb is 31.6 nM.

Which Kb does the source give for `Cc1ccc(N2CCc3c(F)cccc3N(Cc3c(F)cc(Br)cc3F)C2=O)cc1C(C)(F)F` [Example 1, 1-(4-bromo-2,6-difluorobenzyl)-3-[3-(1,1-difluoroethyl)-4-methylphenyl]-6-fluoro-1,3,4,5-tetrahydro-2H-1,3-benzodiazepin-2-one] here?
The Kb was 158 nM.

For `[2H]C([2H])([2H])Oc1ncc(N2CCc3c(F)cccc3N(Cc3c(F)cc(Br)cc3F)C2=O)cc1C(C)(F)F` [Example 2, 1-(4-bromo-2,6-difluorobenzyl)-3-{5-(1,1-difluoroethyl)-6-[(^2H3)methyloxy]pyridin-3-yl}-6-fluoro-1,3,4,5-tetrahydro-2H-1,3-benzodiazepin-2-one], which Kb is on record?
Its Kb is 20 nM.

For `COc1ncc(N2CCc3c(F)cccc3N(Cc3c(F)cc(Br)cc3F)C2=O)cc1C(C)(F)F` [Example 3, 1-(4-bromo-2,6-difluorobenzyl)-3-[5-(1,1-difluoroethyl)-6-methoxypyridin-3-yl]-6-fluoro-1,3,4,5-tetrahydro-2H-1,3-benzodiazepin-2-one], which Kb is on record?
The Kb was 50.1 nM.

With `COc1ccc(CN2C(=O)N(c3cnc(OC)c(C(C)(F)F)c3)CCc3c(F)cccc32)c(F)c1` [Example 4, 3-[5-(1,1-difluoroethyl)-6-methoxypyridin-3-yl]-6-fluoro-1-(2-fluoro-4-methoxybenzyl)-1,3,4,5-tetrahydro-2H-1,3-benzodiazepin-2-one] as the compound, how does the Kb read?
Its Kb is 15.8 nM.

`[2H]C([2H])([2H])OCc1cc(F)c(CN2C(=O)N(c3cnc(OC)c(C(C)(F)F)c3)CCc3c(F)cccc32)c(F)c1` [Example 5, 3-[5-(1,1-difluoroethyl)-6-methoxypyridin-3-yl]-1-(2,6-difluoro-4-{[(^2H3)methyloxy]methyl}benzyl)-6-fluoro-1,3,4,5-tetrahydro-2H-1,3-benzodiazepin-2-one] was tested. Which Kb did it give?
Its Kb is 1.58 nM.

`[2H]C([2H])([2H])Oc1cc(F)c(CN2C(=O)N(c3cnc(OC)c(C(C)(F)F)c3)CCc3c(F)cccc32)c(F)c1` [Example 6, 3-[5-(1,1-difluoroethyl)-6-methoxypyridin-3-yl]-1-{2,6-difluoro-4-[(^2H3)methyloxy]benzyl}-6-fluoro-1,3,4,5-tetrahydro-2H-1,3-benzodiazepin-2-one] was tested. Which Kb did it give?
Its Kb is 10 nM.

Which Kb does the source give for `COCc1cc(F)c(CN2C(=O)N(c3cnc(OC)c(C(C)(F)F)c3)CCc3c(F)cccc32)c(F)c1` [Example 7, 3-[5-(1,1-difluoroethyl)-6-methoxypyridin-3-yl]-1-[2,6-difluoro-4-(methoxymethyl)benzyl]-6-fluoro-1,3,4,5-tetrahydro-2H-1,3-benzodiazepin-2-one] here?
The Kb was 7.94 nM.

For `COc1cc(F)c(CN2C(=O)N(c3cnc(OC)c(C(C)(F)F)c3)CCc3c(F)cccc32)c(F)c1` [Example 8, 3-[5-(1,1-difluoroethyl)-6-methoxypyridin-3-yl]-1-(2,6-difluoro-4-methoxybenzyl)-6-fluoro-1,3,4,5-tetrahydro-2H-1,3-benzodiazepin-2-one], which Kb is on record?
Its Kb is 3.16 nM.

For `COc1ncc(N2CCc3c(F)cccc3N(Cc3c(F)cc(Cl)cc3F)C2=O)cc1C(C)(F)F` [Example 9, 1-(4-chloro-2,6-difluorobenzyl)-3-[5-(1,1-difluoroethyl)-6-methoxypyridin-3-yl]-6-fluoro-1,3,4,5-tetrahydro-2H-1,3-benzodiazepin-2-one], which Kb is on record?
Its Kb is 25.1 nM.

How did the Kb turn out when `COc1ncc(N2CCc3c(F)cccc3N(Cc3ccc(Br)cc3F)C2=O)cc1C(C)(F)F` [Example 10, 1-(4-bromo-2-fluorobenzyl)-3-[5-(1,1-difluoroethyl)-6-methoxypyridin-3-yl]-6-fluoro-1,3,4,5-tetrahydro-2H-1,3-benzodiazepin-2-one] was run?
The Kb was 25.1 nM.

Which Kb does the source give for `COc1ncc(N2CCc3c(F)cccc3N(Cc3c(F)cc(Br)cc3F)C2=O)cc1S(C)(=O)=O` [Example 14, 1-(4-bromo-2,6-difluorobenzyl)-6-fluoro-3-[6-methoxy-5-(methylsulfonyl)pyridin-3-yl]-1,3,4,5-tetrahydro-2H-1,3-benzodiazepin-2-one] here?
Its Kb is 79.4 nM.

How did the Kb turn out when `COc1cc(F)c(CN2C(=O)N(c3cnc(OC)c(S(C)(=O)=O)c3)CCc3c(F)cccc32)c(F)c1F` [Example 15, 6-fluoro-3-[6-methoxy-5-(methylsulfonyl)pyridin-3-yl]-1-(2,3,6-trifluoro-4-methoxybenzyl)-1,3,4,5-tetrahydro-2H-1,3-benzodiazepin-2-one] was run?
The Kb was 126 nM.

How did the Kb turn out when `COc1cc(F)c(CN2C(=O)N(c3cnc(OC)c(S(C)(=O)=O)c3)CCc3c(F)cccc32)c(F)c1` [Example 16, 1-(2,6-difluoro-4-methoxybenzyl)-6-fluoro-3-[6-methoxy-5-(methylsulfonyl)pyridin-3-yl]-1,3,4,5-tetrahydro-2H-1,3-benzodiazepin-2-one] was run?
The Kb was 15.8 nM.

`COc1ncc(N2CCc3c(F)cccc3N(Cc3c(C)cc(Br)cc3F)C2=O)cc1S(C)(=O)=O` [Example 17, 1-(4-bromo-2-fluoro-6-methylbenzyl)-6-fluoro-3-[6-methoxy-5-(methylsulfonyl)pyridin-3-yl]-1,3,4,5-tetrahydro-2H-1,3-benzodiazepin-2-one] was tested. Which Kb did it give?
The Kb was 10 nM.
